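96-well plates; 48 h exposure; 5 concentrations. Endpoints by linear interpolation between flanking doses. Not reached: highest tested concentration assigned. Abbreviation: GI50, concentration required for 50% inhibition of growth.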 Activity calls are given as the source filed them. Rule as the data show it: active = GI50 up to about 1.1 µM and inactive = higher.
Experiments:
Test in all cases: inhibition of tumour cell growth, NCI panel, 48 h
CAKI-1 = tested on: CAKI-1
HCT-15 = tested on: HCT-15
HL-60 = tested on: HL-60
LOX IMVI = tested on: LOX IMVI
M14 = tested on: M14
MCF7 = tested on: MCF7
NCI-H23 = tested on: NCI-H23
NCI-H460 = tested on: NCI-H460
OVCAR-3 = tested on: OVCAR-3
OVCAR-5 = tested on: OVCAR-5
SK-OV-3 = tested on: SK-OV-3
SNB-19 = tested on: SNB-19
SR = tested on: SR
TK-10 = tested on: TK-10
UACC-257 = tested on: UACC-257
UACC-62 = tested on: UACC-62
UO-31 = tested on: UO-31
EKVX = tested on: EKVX
HCC 2998 = tested on: HCC 2998
RPMI-8226 = tested on: RPMI-8226

Measured: GI50

Cc1cccc(Nc2nn3c(=O)c4c5c(sc4nc3s2)CCCC5)c1
6.41 µM: HCT-15
inactive: CAKI-1 9.93 µM | HL-60 23.4 µM | LOX IMVI 3.33 µM | M14 3.89 µM | MCF7 6.17 µM | NCI-H23 14 µM | NCI-H460 6.24 µM | OVCAR-3 25.9 µM | OVCAR-5 87.7 µM | SK-OV-3 45.8 µM | SNB-19 > 100 µM | SR 25.4 µM | TK-10 37.7 µM | UACC-257 21.5 µM | UO-31 > 100 µM
active: UACC-62 0.647 µM

O=C(CSCC(=O)N/N=C/c1cc(I)cc(I)c1O)N/N=C/c1cc(I)cc(I)c1O
inactive: CAKI-1 18.3 µM | EKVX 16 µM | HCC 2998 12.8 µM | HL-60 6.18 µM | M14 17.8 µM | MCF7 15.1 µM | NCI-H23 11.6 µM | NCI-H460 25.6 µM | OVCAR-3 27 µM | OVCAR-5 39.5 µM | RPMI-8226 26.5 µM | SK-OV-3 10.8 µM | SNB-19 10.5 µM | SR 3.54 µM | TK-10 7.4 µM | UACC-257 22.4 µM | UACC-62 12.8 µM | UO-31 13.2 µM
17.9 µM: HCT-15

Cc1ccc2nc(-c3ccc(N4C(=O)C(Cl)C4c4ccc(Cl)cc4)cc3)sc2c1 (stereo not given)
27.3 µM: HCT-15
inactive: CAKI-1 15.5 µM | EKVX 2.62 µM | HL-60 29.9 µM | LOX IMVI 5.35 µM | M14 21.4 µM | MCF7 14.6 µM | NCI-H23 21.6 µM | NCI-H460 21.9 µM | OVCAR-3 16.3 µM | OVCAR-5 18.4 µM | RPMI-8226 11.5 µM | SK-OV-3 12.7 µM | SNB-19 33.1 µM | SR 24.2 µM | TK-10 16.4 µM | UACC-257 25.1 µM | UACC-62 15.3 µM | UO-31 21.4 µM

O=C1SC(c2ccc(Cl)cc2)(c2ccc(Cl)cc2)c2ccccc21
inactive: CAKI-1 > 100 µM | EKVX 86.7 µM | HCC 2998 38.3 µM | HL-60 28.2 µM | LOX IMVI 80.7 µM | M14 87.9 µM | MCF7 48.8 µM | NCI-H23 59.4 µM | NCI-H460 63.1 µM | OVCAR-3 79.3 µM | OVCAR-5 > 100 µM | RPMI-8226 55.8 µM | SK-OV-3 > 100 µM | SNB-19 > 100 µM | TK-10 > 100 µM | UACC-257 34.3 µM | UACC-62 98.4 µM | UO-31 76.6 µM
34.8 µM: HCT-15

COc1ccc(-c2c(C#N)c(S)n(NS(=O)(=O)c3ccc(C)cc3)c(=O)c2C#N)cc1
16 µM: HCT-15
inactive: CAKI-1 44.5 µM | EKVX 25.8 µM | HCC 2998 30.3 µM | HL-60 11.1 µM | LOX IMVI 13.9 µM | M14 17.7 µM | MCF7 29.4 µM | NCI-H460 32.6 µM | OVCAR-5 16.7 µM | RPMI-8226 3.42 µM | SK-OV-3 32.8 µM | SNB-19 35.8 µM | TK-10 32.4 µM | UACC-257 32 µM | UACC-62 15.6 µM

CC(C(=O)N1c2ccccc2Sc2ccccc21)N1c2ccccc2Sc2ccccc21 (stereo not given)
> 100 µM: HCT-15
inactive: EKVX > 100 µM | HL-60 77.6 µM | LOX IMVI > 100 µM | M14 > 100 µM | MCF7 42.9 µM | NCI-H23 74.8 µM | NCI-H460 > 100 µM | OVCAR-3 55 µM | OVCAR-5 > 100 µM | RPMI-8226 > 100 µM | SK-OV-3 > 100 µM | SNB-19 > 100 µM | SR > 100 µM | TK-10 > 100 µM | UACC-257 > 100 µM | UACC-62 > 100 µM | UO-31 70.1 µM

O=C(N/N=C(COc1ccccc1Cl)\N=C\c1ccncc1)c1ccncc1
inactive: CAKI-1 > 100 µM | EKVX > 100 µM | HCC 2998 > 100 µM | HL-60 > 100 µM | LOX IMVI > 100 µM | M14 > 100 µM | MCF7 > 100 µM | NCI-H23 > 100 µM | NCI-H460 > 100 µM | OVCAR-3 > 100 µM | OVCAR-5 > 100 µM | RPMI-8226 > 100 µM | SK-OV-3 > 100 µM | SNB-19 > 100 µM | TK-10 > 100 µM | UACC-257 > 100 µM | UACC-62 > 100 µM
> 100 µM: HCT-15

CCN1CCC(CNC(=O)c2ccc(N)cc2)N1CC (stereo not given)
inactive: CAKI-1 > 100 µM | EKVX > 100 µM | HCC 2998 > 100 µM | HL-60 > 100 µM | M14 > 100 µM | MCF7 > 100 µM | NCI-H23 > 100 µM | NCI-H460 > 100 µM | OVCAR-3 > 100 µM | OVCAR-5 > 100 µM | RPMI-8226 > 100 µM | SK-OV-3 > 100 µM | SNB-19 > 100 µM | SR > 100 µM | TK-10 > 100 µM | UACC-257 > 100 µM | UACC-62 > 100 µM | UO-31 > 100 µM
> 100 µM: HCT-15

Cc1ccccc1NC(=O)C(=O)CC(=O)c1sc(Nc2ccccc2[N+](=O)[O-])nc1C
inactive: CAKI-1 28.4 µM | EKVX 34 µM | HCC 2998 24.4 µM | HL-60 60.4 µM | LOX IMVI 37.4 µM | M14 39.7 µM | MCF7 23.9 µM | NCI-H23 36.8 µM | NCI-H460 27.4 µM | OVCAR-3 32 µM | OVCAR-5 90.2 µM | RPMI-8226 27.9 µM | SK-OV-3 25.2 µM | SNB-19 34.7 µM | TK-10 25.7 µM | UACC-257 29.9 µM | UACC-62 18.2 µM | UO-31 10.4 µM
52.4 µM: HCT-15

O=C1NC(=S)NC(=O)C1=C/C=C/c1ccc([N+](=O)[O-])cc1
14.3 µM: HCT-15
inactive: CAKI-1 15.2 µM | EKVX 17.9 µM | HCC 2998 18.4 µM | HL-60 3.71 µM | LOX IMVI 6.76 µM | M14 15 µM | MCF7 14 µM | NCI-H23 13.9 µM | NCI-H460 27 µM | OVCAR-3 14.3 µM | OVCAR-5 18.3 µM | RPMI-8226 7.24 µM | SK-OV-3 20.2 µM | SNB-19 17.1 µM | TK-10 5.45 µM | UACC-257 12.7 µM | UACC-62 11 µM | UO-31 18.3 µM

CCOC(=O)c1c(-c2ccc(OC)cc2)c(C#N)c(=S)n(C2OC(CO)C(O)C(O)C2O)c1C (stereo not given)
inactive: CAKI-1 87.7 µM | EKVX > 100 µM | HCC 2998 > 100 µM | HL-60 > 100 µM | LOX IMVI > 100 µM | M14 > 100 µM | MCF7 > 100 µM | NCI-H23 > 100 µM | OVCAR-3 > 100 µM | OVCAR-5 > 100 µM | SK-OV-3 > 100 µM | SNB-19 > 100 µM | SR > 100 µM | TK-10 > 100 µM | UACC-257 > 100 µM | UO-31 > 100 µM
> 100 µM: HCT-15

O=CNNC(=O)Nc1ccc(Cl)cc1
inactive: EKVX > 100 µM | HCC 2998 > 100 µM | HL-60 > 100 µM | M14 > 100 µM | MCF7 > 100 µM | NCI-H23 > 100 µM | OVCAR-5 > 100 µM | RPMI-8226 > 100 µM | SK-OV-3 > 100 µM | SNB-19 95.7 µM | SR > 100 µM | TK-10 > 100 µM | UACC-257 > 100 µM | UACC-62 > 100 µM | UO-31 68.7 µM
> 100 µM: HCT-15

Oc1ccc(/C=N/CC2CCCN3CCCCC23)cc1 (stereo not given)
inactive: CAKI-1 17.8 µM | EKVX 27.5 µM | HCC 2998 20 µM | LOX IMVI 21.4 µM | M14 26.5 µM | MCF7 18.3 µM | NCI-H23 24.9 µM | NCI-H460 25.1 µM | OVCAR-3 29.4 µM | OVCAR-5 31.3 µM | RPMI-8226 20.9 µM | SK-OV-3 46 µM | SNB-19 25.3 µM | TK-10 23.4 µM | UACC-257 24.3 µM | UACC-62 24.5 µM | UO-31 23.1 µM
24.4 µM: HCT-15

CC(N)C(C)Cc1ccccc1 (stereo not given)
> 100 µM: HCT-15
inactive: CAKI-1 > 100 µM | EKVX > 100 µM | HCC 2998 > 100 µM | HL-60 > 100 µM | LOX IMVI > 100 µM | M14 > 100 µM | MCF7 > 100 µM | NCI-H23 > 100 µM | NCI-H460 > 100 µM | OVCAR-3 > 100 µM | OVCAR-5 > 100 µM | RPMI-8226 > 100 µM | SK-OV-3 > 100 µM | SNB-19 > 100 µM | TK-10 > 100 µM | UACC-257 > 100 µM | UACC-62 > 100 µM | UO-31 > 100 µM

Cc1ccc(S(=O)(=O)N/N=C2/CCC(C(C)(C)C)CC2Br)cc1 (stereo not given)
34 µM: HCT-15
inactive: CAKI-1 28.1 µM | EKVX 36.6 µM | HL-60 41.9 µM | LOX IMVI 16.4 µM | M14 17.9 µM | MCF7 22.7 µM | NCI-H23 28 µM | NCI-H460 34.1 µM | OVCAR-3 16.2 µM | OVCAR-5 19.5 µM | RPMI-8226 28.4 µM | SK-OV-3 33.8 µM | SNB-19 36.6 µM | SR 39 µM | TK-10 31 µM | UACC-257 23 µM | UACC-62 > 10 µM | UO-31 17.2 µM

Cc1cc(S(=O)(=O)Nc2nc3cscc3c(=O)n2N)c(S)cc1Cl
inactive: CAKI-1 > 100 µM | EKVX 70.1 µM | HCC 2998 47.5 µM | HL-60 > 100 µM | LOX IMVI 36.5 µM | M14 31.9 µM | MCF7 61.5 µM | NCI-H23 55.2 µM | NCI-H460 28 µM | OVCAR-3 45 µM | OVCAR-5 26.5 µM | RPMI-8226 96.6 µM | SK-OV-3 > 100 µM | SNB-19 35.9 µM | TK-10 > 100 µM | UACC-257 > 100 µM | UACC-62 31.9 µM
35.2 µM: HCT-15

Reference: ChEMBL document CHEMBL1201862, “PubChem BioAssay data set” (2004)
